In patent publication US20250213647A1, “CHEMOKINE RECEPTORS AND ALPHA1 ADRENERGIC RECEPTORS/VASOPRESSIN RECEPTORS 1A HETEROMERS AS DRUG TARGETS FOR DISEASE” (UNIVERSITY OF SOUTH FLORIDA, priority 2022, published 2025):

Legend:
CXCR4 [1] = conditions: previous observations (Gao, 2018); cited from earlier work
[2] = tested on: CR heteromerization partners of α1B/D-ARs (CCR1, CCR2, CXCR4); assay: Chemotaxis assay, THP-1 cells, CR heteromerization partners of α1B/D-ARs taken together; type: cell-based, human; conditions: FIG. 17D-17F
Method: (§1) Cell migration was measured employing the Neuroprobe (Gaithersburg, MD, USA) ChemoTx® Disposable Chemotaxis System. A 96-well Boyden-chamber (30 μL/well, 8 μm pores, 1×10^5 pores/cm^2 pore density) was selected for all chemotaxis experiments. Bottom wells of the Boyden-chamber were loaded with 30 μL of test substances at various concentrations. Top wells of the membrane were loaded with 25 μL of THP-1 cells, THP-1_ADRA1B^KO, wild type THP-1 cells after clonal expansion (=control for THP-1_ADRA1B^KO) or freshly isolated monocytes (200 cells/μL). THP-1 cells were suspended in depleted RPMI1640 (0.5% HyClone™ fetal bovine serum, Sigma); Freshly isolated monocytes were suspended in RPMI1640 (0.5% human platelet poor plasma, Sigma). After 3 hours, transmigrated cells were counted utilizing the Cytation 1 plate reader (BioTek) by direct imaging in high contrast bright field (4×) and post-imaging particle analyses with Gen5 (v3.05) Imaging & Microscopy Software (BioTek). The chemotactic index (CI) was calculated as the ratio of cells that transmigrated in the presence versus the absence of the test solutions.

CXCR1 = assay: Chemotaxis assay, THP-1 cells toward CXCL8 (CXCR1-mediated); type: cell-based, human; conditions: CXCL8 10 nM, FIG. 13B
Method: as §1

CCR1 = assay: Chemotaxis assay, THP-1 cells toward CCL23 (CCR1-mediated); type: cell-based, human; conditions: CCL23 10 nM, mean±SE, read-out: IC50 for inhibition of CCR1-mediated chemotaxis
Method: as §1

CXCR4 [3] = assay: Chemotaxis assay, THP-1 cells toward CXCL12 (CXCR4-mediated); type: cell-based, human; conditions: CXCL12 100 nM, mean±SE, read-out: IC50 for inhibition of CXCR4-mediated chemotaxis
Method: as §1

CCR2 [4] = target: T1, CCR2 (Homo sapiens, UniProt P41597); assay: Chemotaxis assay, THP-1 cells toward CCL2 (CCR2-mediated); type: cell-based; design: host or cells: THP-1; conditions: CCL2 10 nM
Method: as §1

[5] = tested on: AVPR1A heteromerization partners CCR2, CCR8 and CXCR4; assay: Chemotaxis assay, THP-1 cells, AVPR1A heteromerization partners CCR2, CCR8 and CXCR4; type: cell-based; conditions: Homo sapiens, FIG. 13A, 13C, read-out: IC50, inhibition of chemotaxis mediated via CCR2, CCR8 and CXCR4
CCR2 [6] = target: T1, CCR2; assay: BRET assay for β-arrestin recruitment, HEK293T with CCR2-Rluc and β-arrestin-YFP without α1b-AR; type: cell-based; conditions: 10 μM PE, PT or 100 nM INCB3284, FIG. 5C
Method: β-arrestin recruitment was measured by BRET, as described (Armando, 2014; Berchiche, 2011). In brief, HEK293T cells were plated in a 6-well plate and transfected with 0.1 μg of CCR2-RluII and 1.9 μg β-arrestin-YFP with 0.1 μg pcDNA3.1 or α1b-AR. One day after transfection, cells were re-plated into 96-well poly-L lysine precoated plates. After overnight incubation, cells were replaced with 0.1% glucose/PBS. Coelenterazine H in a final concentration of 5 μM was added to cells and incubated at room temperature for 3 min. […] The BRET changes were calculated by subtracting the BRET signal of untreated cells.

[7] = tested on: THP-1 cells (CCR2-mediated Gαi signaling); assay: Cyclic AMP measurement in forskolin-stimulated THP-1 cells; type: cell-based, human; conditions: forskolin-stimulated THP-1 cells; 1 μM PE, 1 μM PT or 100 nM NE; 15 min at 37° C.; FIG. 4G, 4H
Method: (§2) Cyclic AMP amounts were measured using the cAMP complete enzyme immunoassay kit, acetylated format (Enzo Life Sciences). 4×10^5 cells were incubated with forskolin/isobutylmethylxanthine (10 μM/0.5 mM final concentrations) in 0.1% BSA/10 mM Hepes-buffered RPMI and treated with CCL2 in the presence or absence of 1 μM PE, 1 μM PT or 100 nM NE at 37° C. for 15 min. The cells were lysed by incubating with 0.1 M HCl at room temperature for 20 min. The cAMP amounts in the lysate supernatant were measured following the manufacturer's instructions.

CCR2 [8] = target: T1, CCR2; assay: Gαi activation assay (TRUPATH BRET), HEK293T cells transfected with CCR2 plus pcDNA3 (CCR2 alone); type: cell-based; conditions: cells transfected with CCR2 alone; 10 μM PE or PT; FIG. 4B, 4E
Method: HEK293T cells were plated in a 6-well plate and transfected with 0.2 μg each of Gαi1-Rluc8, Gβ3 and Gγ9-GFP2 (Trupath) together with 0.2 μg of mouse or human CCR2 with either pcDNA3.1 or α1b-AR. One day after transfection, cells were trypsinized and replated to 96-well poly-L lysine precoated plates. After overnight incubation, cells were replaced with 0.1% glucose/PBS. Prolume Purple (NanoLight Tech.) or coelenterazine 400a in a final concentration of 5 μM were added in experiments with human or mouse CCR2, respectively, and incubated at room temperature for 3 min. Ligands at various concentrations were added to cells and incubated at room temperature for 5 min before luminescence was measured at 410 nm and 515 nm. […] The BRET changes were calculated by subtracting the BRET signal of untreated cells.

THP-1_ADRA1B^KO cells = assay: Cyclic AMP measurement in forskolin-stimulated THP-1_ADRA1B^KO cells; type: cell-based, human; conditions: 100 nM CCL1, 15 min at 37° C.; FIG. 2B
Method: as §2

T1 sequence (P41597 whole entry): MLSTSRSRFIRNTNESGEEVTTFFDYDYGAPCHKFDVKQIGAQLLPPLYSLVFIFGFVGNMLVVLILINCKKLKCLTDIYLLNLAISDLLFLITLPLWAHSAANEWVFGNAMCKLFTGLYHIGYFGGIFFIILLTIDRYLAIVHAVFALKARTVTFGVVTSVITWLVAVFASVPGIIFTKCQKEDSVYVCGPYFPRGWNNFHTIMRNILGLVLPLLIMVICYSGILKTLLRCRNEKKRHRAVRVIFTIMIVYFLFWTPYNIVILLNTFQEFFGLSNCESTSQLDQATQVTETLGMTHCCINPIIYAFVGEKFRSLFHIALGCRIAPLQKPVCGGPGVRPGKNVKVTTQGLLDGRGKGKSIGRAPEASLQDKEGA

COc1cc2nc(N3CCN(C(=O)c4ccco4)[C@H]4CCCC[C@H]43)nc(N)c2cc1OC (racemic) [cyclazosin]
CXCR4-mediated chemotaxis of primary human vascular smooth muscle cells (CXCR4 [1]): inhibit

COc1ccccc1N1CCN(CCCNc2c(C)c(=O)n(C)c(=O)n2C)CC1 [5-Methylurapidil]
CR-mediated chemotaxis (CCR1, CCR2 and CXCR4) [2]: did not affect

NC(=O)CC[C@@H]1NC(=O)[C@H](Cc2ccccc2)NC(=O)[C@H](Cc2ccc(O)cc2)NC(=O)[C@@H](N)CSSC[C@@H](C(=O)N2CCC[C@H]2C(=O)N[C@@H](CCCN=C(N)N)C(=O)NCC(N)=O)NC(=O)[C@H](CC(N)=O)NC1=O [AVP, arginine vasopressin]
chemotaxis mediated by CXCR1 (CXCR1): did not affect

COc1ccccc1N1CCN(CCN2C(=O)CC3(CCCC3)CC2=O)CC1 [BMY7378]
IC50 (CCR1): 10.5 ± 0.91 nM | IC50 (CXCR4 [3]): 2.87 ± 0.6 nM | IC50 (CCR2 [4]; mean±SE, read-out: IC50 for inhibition of CCR2-mediated chemotaxis): 0.93 ± 0.61 nM

Cc1nc2c([nH]1)-c1ccccc1N(C(=O)c1ccc(NC(=O)c3ccccc3-c3ccccc3)cc1)CC2 [Conivaptan]
IC50 [5]: 0.037 to 0.218 nM

COc1ccc(C2(O)CCC(N3CC[C@@H](NC(=O)CNC(=O)c4cccc(C(F)(F)F)c4)C3)CC2)cn1 (stereo partly shown) [INCB3284]
effect on the CCL2-induced BRET signal (CCR2-Rluc / β-arrestin-YFP) (CCR2 [6]): could be inhibited | inhibition of CCL2-induced chemotaxis (CCR2 [4]; FIG. 23E): more than 95%

NC[C@H](O)c1ccc(O)c(O)c1 [norepinephrine]
effect on the effects of CCL2 on cAMP production [7]: inhibited the effects of CCL2 on cAMP production | effect on CCL2-induced Gαi1 activation (CCR2 [8]): did not affect

COc1cc2nc(N3CCN(C(=O)c4ccco4)CC3)nc(N)c2cc1OC [prazosin]
CXCR4-mediated chemotaxis of primary human vascular smooth muscle cells (CXCR4 [1]): inhibit

B1: CCL1: Chemokine (C-C motif) ligand 1, selective agonist of CCR8 (protein, UniProt P22362 24-96, looked up)
C-C motif chemokine 1: KSMQVPFSRCCFSFAEQEIPLRAILCYRNTSSICSNEGLIFKLKRGKEACALDTVGWVQRHRKMLRHCPSKRK
inhibition of forskolin-stimulated cAMP production by CCL1, THP1 vs THP-1_ADRA1B^KO cells (THP-1_ADRA1B^KO cells): indistinguishable
